# Assay results reported in patent US20210189327A1, “3D […] CONSTRUCTS AND METHODS OF MAKING THEREOF” (McMaster University, priority 2019, published 2021).
# System: MCF-7 cells
# Test: Effect of actin cytoskeleton impairment on spheroid formation and consolidation
# Assay type: cell-based
# Details: 100 nM; 1 hr pretreatment without (T-nT) or with (T-T) the same concentration during spheroid formation; 5×10^5 MCF-7 cells in large wells; P-value>0.05
# Procedure: Rapid Formation of Spheroidal Tissue Constructs. In order to form spheroidal tissue constructs, PDMS molds in the form of circular wells with spherical bottom were used. These molds were prepared by mixing PDMS and its curing agent with the ratio of 10:1 and casting it on the Poly lactic acid (PLA) master mold with negative of the required patterns. Master molds were designed using software Solidworks© and 3D printed using a Stereolithography (SLA) based 3D printer (Objet 24 Desktop 3D printer). A large and small well size were created with diameters of 4 and 2.5 mm respectively. MCF-7 (Michigan Cancer Foundation-7, a breast cancer cell line) cells were cultured in Dulbecco's Modified Eagle Medium (DMEM) (Thermofisher, high glucose) supplemented with 10% V/V fetal bovine serum (FBS) (Thermofisher, US origin) and 1% Penicillin-Streptomycin (Thermofisher, 10000 U/mL) until 70% confluent. Cells were trypsinized and detached from tissue culture flasks. Required number of cells (10^5 or 10^6) were aliquoted, precipitated using centrifugation, and resuspended in proper amount of medium (5 μL for small wells, 15 μL for large wells). The cell solution then was added to the equal amount of bovine collagen type I (Thermofisher, 5 mg/mL) and mixed to get a uniform distribution of cells. […]
structure (smiles),measurement,value
"C/C1=C/C(=O)O[C@@H]2C[C@@H](CC[C@H](C)/C=C\C=C\CC1)O[C@@](O)([C@@H]1CSC(=O)N1)C2 [latrunculin A, Latrunculin A]",difference between spheroid radii after 6 hrs versus untreated control (nT-nT),no meaningful difference
